Source: ChEMBL document CHEMBL1140558, “An atom efficient, solvent-free, green synthesis and antimycobacterial evaluation of 2-amino-6-methyl-4-aryl-8-[(E)-arylmethylidene]-5,6,7,8-tetrahydro-4H-pyrano[3,2-c]pyridine-3-carbonitriles” (2007)
Converted amounts (≈) assume the structure as drawn.

System: Mycobacterium tuberculosis
Experiment: Antimycobacterial activity against multidrug-resistant Mycobacterium tuberculosis by agar dilution method
Assay type: functional

Structure (SMILES) | MIC
CN1CC2=C(OC(N)=C(C#N)C2c2ccccc2Cl)/C(=C/c2ccccc2Cl)C1 (stereo not drawn) | 3.68 µM (≈ 1.56 µg/mL)
CN1CC2=C(OC(N)=C(C#N)C2c2cccc([N+](=O)[O-])c2)/C(=C/c2cccc([N+](=O)[O-])c2)C1 (stereo not drawn) | 1.75 µM (≈ 0.78 µg/mL)
CN1CC2=C(OC(N)=C(C#N)C2c2ccc(F)cc2)/C(=C/c2ccc(F)cc2)C1 (stereo not drawn) | 0.97 µM (≈ 0.38 µg/mL)
CN1CC2=C(OC(N)=C(C#N)C2c2ccc(N(C)C)cc2)/C(=C/c2ccc(N(C)C)cc2)C1 (stereo not drawn) | 0.43 µM (≈ 0.19 µg/mL)
CN1CC2=C(OC(N)=C(C#N)C2c2ccc(Cl)cc2)/C(=C/c2ccc(Cl)cc2)C1 (stereo not drawn) | 1.84 µM (≈ 0.781 µg/mL)
CN1CC2=C(OC(N)=C(C#N)C2c2cccc(F)c2)/C(=C/c2cccc(F)c2)C1 (stereo not drawn) | 1.99 µM (≈ 0.779 µg/mL)
NNC(=O)c1ccncc1 [ISONIAZID] | 45.6 µM (≈ 6.25 µg/mL)
COc1c(N2CCNC(C)C2)c(F)cc2c(=O)c(C(=O)O)cn(C3CC3)c12 (stereo not drawn) [GATIFLOXACIN] | 8.34 µM (≈ 3.13 µg/mL)
